# According to the supplement of paper PMC10307832:
# Tests used:
# Test in all cases: relative viability (nuclei count vs DMSO), 5 days (fraction); higher = more cells survive
# [1] = compound: C/C(=N\NC(=S)N1CCC1)/C2=CC=CC=N2 + CS(=O)(=O)CCNCc1ccc(-c2ccc3ncnc(Nc4ccc(OCc5cccc(F)c5)c(Cl)c4)c3c2)o1 [Lapatinib] (partner 2 µM)
# In short: (§1)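 Lung cancer cell lines were seeded in 1536-well plates and dosed by pin tool the next day, with either a single drug or a fixed anchor-drug dose combined with five library-drug doses (not always all listed) spaced in √10 steps. Five days later, one step fixed the cells and stained their nuclei (final 0.05% Triton X-100, 1% formaldehyde, 1 ug/ml Hoechst), and nuclei were counted on 4× images. Relative viability is the nuclei count in treated wells divided by the count in vehicle wells, and each value is the median of duplicate plates.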
# [2] = compound: C/C(=N\NC(=S)N1CCC1)/C2=CC=CC=N2 + C[C@@H](Oc1cc(-c2cnn(C3CCNCC3)c2)cnc1N)c1c(Cl)ccc(F)c1Cl [Crizotinib] (partner 1 µM)
# In short: as §1
# [3] = compound: C/C(=N\NC(=S)N1CCC1)/C2=CC=CC=N2 + Cc1nc(Nc2ncc(C(=O)Nc3c(C)cccc3Cl)s2)cc(N2CCN(CCO)CC2)n1 [Dasatinib] (partner 0.075 µM)
# In short: as §1
# [4] = compound: C/C(=N\NC(=S)N1CCC1)/C2=CC=CC=N2 + Nc1nc2[nH]cc(CCc3ccc(C(=O)N[C@@H](CCC(=O)O)C(=O)O)cc3)c2c(=O)[nH]1 [Pemetrexed] (partner 0.2 µM)
# In short: as §1
Cell Line,relative viability ([1]; first compound 0.05 µM),relative viability ([1]; first compound 0.1581 µM),relative viability ([1]; first compound 0.5 µM),relative viability ([1]; first compound 1.581 µM),relative viability ([1]; first compound 5 µM),relative viability ([2]; first compound 0.05 µM),relative viability ([2]; first compound 0.1581 µM),relative viability ([2]; first compound 0.5 µM),relative viability ([2]; first compound 1.581 µM),relative viability ([2]; first compound 5 µM),relative viability ([3]; first compound 0.05 µM),relative viability ([3]; first compound 0.1581 µM),relative viability ([3]; first compound 0.5 µM),relative viability ([3]; first compound 1.581 µM),relative viability ([3]; first compound 5 µM),relative viability ([4]; first compound 0.05 µM),relative viability ([4]; first compound 0.1581 µM),relative viability ([4]; first compound 0.5 µM),relative viability ([4]; first compound 1.581 µM),relative viability ([4]; first compound 5 µM)
NCI-H23,0.169,0.168,0.171,0.151,0.166,0.134,0.15,0.129,0.105,0.114,0.128,0.142,0.177,0.121,0.142,0.16,0.175,0.203,0.137,0.19
RERF-LC-KJ,0.258,0.263,0.23,0.253,0.275,0.224,0.263,0.253,0.239,0.242,0.258,0.25,0.266,0.219,0.245,0.211,0.231,0.235,0.191,0.222
NCI-H358,0.233,0.247,0.244,0.193,0.199,0.13,0.157,0.14,0.102,0.144,0.0836,0.0975,0.102,0.0651,0.092,0.114,0.107,0.109,0.0963,0.12
LC-2-ad,0.113,0.122,0.106,0.112,0.122,0.226,0.207,0.198,0.171,0.143,0.191,0.187,0.143,0.165,0.166,0.202,0.218,0.217,0.217,0.192
HCC-15,0.082,0.078,0.0841,0.0904,0.0765,0.21,0.412,0.0685,0.073,0.0642,0.0569,0.0708,0.0679,0.0571,0.0669,0.198,0.11,0.13,0.113,0.093
NCI-H2405,0.251,0.236,0.263,0.25,0.281,0.26,0.29,0.307,0.25,0.258,0.219,0.226,0.253,0.228,0.231,0.243,0.238,0.251,0.215,0.215
LXF-289,0.322,0.278,0.275,0.24,0.14,0.417,0.287,0.24,0.168,0.121,0.0597,0.064,0.0627,0.0541,0.0561,0.254,0.203,0.199,0.17,0.104
CAL-12T,0.259,0.214,0.2,0.182,0.187,0.106,0.0871,0.12,0.103,0.0896,0.0937,0.0896,0.054,0.0962,0.0819,0.14,0.132,0.173,0.143,0.122
